In patent US8680290B2, “Isoxazoline derivatives and their use as herbicides” (Syngenta Limited, priority 2004, dated 2014):

How the values were obtained:
[1] = system: Monocotyledonous and dicotyledonous test plants; experiment: Example B1 herbicidal action, application pre-emergence (Table B1b); type: in vivo; details: 250 g/ha, evaluated after 4 weeks
Description: (§1) Monocotyledonous and dicotyledonous test plants were sown in seed trays in standard soil. Immediately after sowing (pre-emergence) or after 8 to 9 days cultivation (post-emergence), the test compounds were applied by spraying in the form of an aqueous solution derived from the formulation of the technical active ingredient in 0.6 ml acetone and 45 ml formulation solution containing 10.6% Emulsogen EL (CAS RN 61791-12-6), 42.2% N-methylpyrrolidone, 42.2% dipropylene glycol monomethyl ether (CAS RN 34590-94-8) and 0.2% X-77 (CAS RN 11097-66-8). The test plants were then grown in a greenhouse under optimum conditions. After a test duration of 3 weeks (post-emergence) or 4 weeks (pre-emergence), the test was evaluated (10=total damage to plant, 0=no damage to plant).

[2] = system: Monocotyledonous and dicotyledonous test plants; experiment: Example B1 herbicidal action, application post-emergence (Table B1a); type: in vivo; details: 250 g/ha, evaluated after 3 weeks, scale 0-10
Description: as §1

## CC1(C)CC(S(=O)(=O)C(F)(F)c2ccccc2-c2ccccc2)=NO1 [1.117]
[1]
  herbicidal action (damage rating 0-10), Amaranthus: 9
  herbicidal action (damage rating 0-10), Digitaria: 10
  herbicidal action (damage rating 0-10), Panicum: 10
  herbicidal action (damage rating 0-10), Setaria: 8
  herbicidal action (damage rating 0-10), Sida: 4
[2]
  herbicidal damage rating, Abutilon: 4
  herbicidal damage rating, Amaranthus: 7
  herbicidal damage rating, Digitaria: 7
  herbicidal damage rating, Panicum: 5
  herbicidal damage rating, Setaria: 6
  herbicidal damage rating, Sida: 6

## CC1(C)CC(S(=O)(=O)C(F)(Cl)c2cc(F)ccc2F)=NO1 (centres unmarked) [1.126]
[1]
  herbicidal action (damage rating 0-10), Amaranthus: 10
  herbicidal action (damage rating 0-10), Digitaria: 10
  herbicidal action (damage rating 0-10), Panicum: 10
  herbicidal action (damage rating 0-10), Setaria: 10
  herbicidal action (damage rating 0-10), Sida: 8
[2]
  herbicidal damage rating, Abutilon: 3
  herbicidal damage rating, Amaranthus: 0
  herbicidal damage rating, Digitaria: 8
  herbicidal damage rating, Panicum: 5
  herbicidal damage rating, Setaria: 5
  herbicidal damage rating, Sida: 5

## COc1ccccc1C(F)(F)S(=O)(=O)C1=NOC(C)(C)C1 [1.107]
[1]
  herbicidal action (damage rating 0-10), Amaranthus: 9
  herbicidal action (damage rating 0-10), Digitaria: 7
  herbicidal action (damage rating 0-10), Panicum: 9
  herbicidal action (damage rating 0-10), Setaria: 10
  herbicidal action (damage rating 0-10), Sida: 0
[2]
  herbicidal damage rating, Abutilon: 4
  herbicidal damage rating, Amaranthus: 0
  herbicidal damage rating, Digitaria: 8
  herbicidal damage rating, Panicum: 7
  herbicidal damage rating, Setaria: 5
  herbicidal damage rating, Sida: 5

## CC1(C)CC(S(=O)(=O)C(F)(Cl)c2ccc(F)cc2F)=NO1 (centres unmarked) [1.133]
[1]
  herbicidal action (damage rating 0-10), Amaranthus: 10
  herbicidal action (damage rating 0-10), Digitaria: 10
  herbicidal action (damage rating 0-10), Panicum: 10
  herbicidal action (damage rating 0-10), Setaria: 10
  herbicidal action (damage rating 0-10), Sida: 6
[2]
  herbicidal damage rating, Abutilon: 0
  herbicidal damage rating, Amaranthus: 5
  herbicidal damage rating, Digitaria: 8
  herbicidal damage rating, Panicum: 7
  herbicidal damage rating, Setaria: 5
  herbicidal damage rating, Sida: 4

## CC1(C)CC(S(=O)(=O)C(F)(F)c2ccccc2[S+]([O-])C(F)(F)F)=NO1 (racemic) [1.69]
[1]
  herbicidal action (damage rating 0-10), Amaranthus: 5
  herbicidal action (damage rating 0-10), Digitaria: 10
  herbicidal action (damage rating 0-10), Panicum: 10
  herbicidal action (damage rating 0-10), Setaria: 10
  herbicidal action (damage rating 0-10), Sida: 4
[2]
  herbicidal damage rating, Abutilon: 4
  herbicidal damage rating, Amaranthus: 3
  herbicidal damage rating, Digitaria: 8
  herbicidal damage rating, Panicum: 5
  herbicidal damage rating, Setaria: 7
  herbicidal damage rating, Sida: 5

## CC1(C)CC(S(=O)(=O)C(F)(F)c2ccc(F)cc2F)=NO1 [1.118]
[1]
  herbicidal action (damage rating 0-10), Amaranthus: 10
  herbicidal action (damage rating 0-10), Digitaria: 10
  herbicidal action (damage rating 0-10), Panicum: 10
  herbicidal action (damage rating 0-10), Setaria: 10
  herbicidal action (damage rating 0-10), Sida: 8
[2]
  herbicidal damage rating, Abutilon: 5
  herbicidal damage rating, Amaranthus: 3
  herbicidal damage rating, Digitaria: 8
  herbicidal damage rating, Panicum: 5
  herbicidal damage rating, Setaria: 7
  herbicidal damage rating, Sida: 3

## Cc1ccc(F)c(C(F)(F)S(=O)(=O)C2=NOC(C)(C)C2)c1F [1.108]
[1]
  herbicidal action (damage rating 0-10), Amaranthus: 10
  herbicidal action (damage rating 0-10), Digitaria: 10
  herbicidal action (damage rating 0-10), Panicum: 10
  herbicidal action (damage rating 0-10), Setaria: 10
  herbicidal action (damage rating 0-10), Sida: 9
[2]
  herbicidal damage rating, Abutilon: 7
  herbicidal damage rating, Amaranthus: 8
  herbicidal damage rating, Digitaria: 8
  herbicidal damage rating, Panicum: 5
  herbicidal damage rating, Setaria: 5
  herbicidal damage rating, Sida: 8

## Cc1ccccc1C(F)(Cl)S(=O)(=O)C1=NOC(C)(C)C1 (racemic) [1.74]
[1]
  herbicidal action (damage rating 0-10), Amaranthus: 5
  herbicidal action (damage rating 0-10), Digitaria: 9
  herbicidal action (damage rating 0-10), Panicum: 10
  herbicidal action (damage rating 0-10), Setaria: 9
  herbicidal action (damage rating 0-10), Sida: 7
[2]
  herbicidal damage rating, Abutilon: 0
  herbicidal damage rating, Amaranthus: 0
  herbicidal damage rating, Digitaria: 8
  herbicidal damage rating, Panicum: 5
  herbicidal damage rating, Setaria: 3
  herbicidal damage rating, Sida: 3

## CC1(C)CC(S(=O)(=O)C(F)(F)c2cc(F)cc(F)c2)=NO1 [1.115]
[1]
  herbicidal action (damage rating 0-10), Amaranthus: 10
  herbicidal action (damage rating 0-10), Digitaria: 10
  herbicidal action (damage rating 0-10), Panicum: 10
  herbicidal action (damage rating 0-10), Setaria: 10
  herbicidal action (damage rating 0-10), Sida: 8
[2]
  herbicidal damage rating, Abutilon: 2
  herbicidal damage rating, Amaranthus: 5
  herbicidal damage rating, Digitaria: 8
  herbicidal damage rating, Panicum: 8
  herbicidal damage rating, Setaria: 7
  herbicidal damage rating, Sida: 0

## COc1cc(OC)cc(C(F)(Cl)S(=O)(=O)C2=NOC(C)(C)C2)c1 (racemic) [1.96]
[1]
  herbicidal action (damage rating 0-10), Amaranthus: 9
  herbicidal action (damage rating 0-10), Digitaria: 10
  herbicidal action (damage rating 0-10), Panicum: 10
  herbicidal action (damage rating 0-10), Setaria: 10
  herbicidal action (damage rating 0-10), Sida: 4
[2]
  herbicidal damage rating, Abutilon: 5
  herbicidal damage rating, Amaranthus: 0
  herbicidal damage rating, Digitaria: 8
  herbicidal damage rating, Panicum: 5
  herbicidal damage rating, Setaria: 3
  herbicidal damage rating, Sida: 2

## Cc1ccc(F)c(C(F)S(=O)(=O)C2=NOC(C)(C)C2)c1F (centres unmarked) [1.105]
[1]
  herbicidal action (damage rating 0-10), Amaranthus: 10
  herbicidal action (damage rating 0-10), Digitaria: 8
  herbicidal action (damage rating 0-10), Panicum: 10
  herbicidal action (damage rating 0-10), Setaria: 10
  herbicidal action (damage rating 0-10), Sida: 7
[2]
  herbicidal damage rating, Abutilon: 2
  herbicidal damage rating, Amaranthus: 5
  herbicidal damage rating, Digitaria: 8
  herbicidal damage rating, Panicum: 5
  herbicidal damage rating, Setaria: 4
  herbicidal damage rating, Sida: 7

## CC1(C)CC(S(=O)(=O)C(F)(F)c2ccccc2OC(F)F)=NO1 [1.66]
[1]
  herbicidal action (damage rating 0-10), Amaranthus: 10
  herbicidal action (damage rating 0-10), Digitaria: 10
  herbicidal action (damage rating 0-10), Panicum: 10
  herbicidal action (damage rating 0-10), Setaria: 10
  herbicidal action (damage rating 0-10), Sida: 9
[2]
  herbicidal damage rating, Abutilon: 8
  herbicidal damage rating, Amaranthus: 5
  herbicidal damage rating, Digitaria: 8
  herbicidal damage rating, Panicum: 5
  herbicidal damage rating, Setaria: 7
  herbicidal damage rating, Sida: 5

## CC1(C)CC(S(=O)(=O)C(F)(Cl)c2cc(F)cc(F)c2)=NO1 (centres unmarked) [1.125]
[1]
  herbicidal action (damage rating 0-10), Amaranthus: 10
  herbicidal action (damage rating 0-10), Digitaria: 10
  herbicidal action (damage rating 0-10), Panicum: 10
  herbicidal action (damage rating 0-10), Setaria: 10
  herbicidal action (damage rating 0-10), Sida: 7
[2]
  herbicidal damage rating, Abutilon: 0
  herbicidal damage rating, Amaranthus: 0
  herbicidal damage rating, Digitaria: 8
  herbicidal damage rating, Panicum: 7
  herbicidal damage rating, Setaria: 5
  herbicidal damage rating, Sida: 3

## CC1(C)CC(S(=O)(=O)C(F)(F)c2ccccc2OC(F)(F)F)=NO1 [1.67]
[1]
  herbicidal action (damage rating 0-10), Amaranthus: 10
  herbicidal action (damage rating 0-10), Digitaria: 10
  herbicidal action (damage rating 0-10), Panicum: 10
  herbicidal action (damage rating 0-10), Setaria: 10
  herbicidal action (damage rating 0-10), Sida: 9
[2]
  herbicidal damage rating, Abutilon: 4
  herbicidal damage rating, Amaranthus: 3
  herbicidal damage rating, Panicum: 3
  herbicidal damage rating, Setaria: 5
  herbicidal damage rating, Sida: 4

## Cn1nc(C(F)(F)F)c(C(F)(Cl)S(=O)(=O)C2=NOC(C)(C)C2)c1OC(F)F (centres unmarked) [2.14]
[1]
  herbicidal action (damage rating 0-10), Amaranthus: 10
  herbicidal action (damage rating 0-10), Digitaria: 10
  herbicidal action (damage rating 0-10), Panicum: 10
  herbicidal action (damage rating 0-10), Setaria: 10
  herbicidal action (damage rating 0-10), Sida: 9
[2]
  herbicidal damage rating, Abutilon: 7
  herbicidal damage rating, Amaranthus: 8
  herbicidal damage rating, Digitaria: 7
  herbicidal damage rating, Panicum: 7
  herbicidal damage rating, Setaria: 4
  herbicidal damage rating, Sida: 7

## COc1cc(OC)cc(C(F)(F)S(=O)(=O)C2=NOC(C)(C)C2)c1 [1.76]
[1]
  herbicidal action (damage rating 0-10), Amaranthus: 9
  herbicidal action (damage rating 0-10), Digitaria: 9
  herbicidal action (damage rating 0-10), Panicum: 10
  herbicidal action (damage rating 0-10), Setaria: 8
  herbicidal action (damage rating 0-10), Sida: 3
[2]
  herbicidal damage rating, Abutilon: 5
  herbicidal damage rating, Amaranthus: 3
  herbicidal damage rating, Panicum: 5
  herbicidal damage rating, Setaria: 5
  herbicidal damage rating, Sida: 5

## CC1(C)CC(S(=O)(=O)C(F)(F)c2ccccc2SC(F)(F)F)=NO1 [1.70]
[1]
  herbicidal action (damage rating 0-10), Amaranthus: 10
  herbicidal action (damage rating 0-10), Digitaria: 10
  herbicidal action (damage rating 0-10), Panicum: 10
  herbicidal action (damage rating 0-10), Setaria: 10
  herbicidal action (damage rating 0-10), Sida: 8
[2]
  herbicidal damage rating, Abutilon: 5
  herbicidal damage rating, Amaranthus: 2
  herbicidal damage rating, Digitaria: 8
  herbicidal damage rating, Panicum: 5
  herbicidal damage rating, Setaria: 7
  herbicidal damage rating, Sida: 5
